Experimental data: patent US20260151410A1, “Tetrahydronaphthyridine Derivatives, Medicine Prepared Therefrom, and Applications Thereof in Preventing and Treating Adhesion-related Diseases” (SCINNOHUB PHARMACEUTICAL CO., LTD, priority 2022, published 2026)
Where two headings read alike, the source gives them in different places.

Key:
[1] = tested on: postoperative intra-abdominal adhesions; conditions: for extent (and locations) of intra-abdominal adhesions compared with the model group: rats, single gavage 12 mL/kg 2 hours before operation, 7 days after operation
Protocol: Seventy male SPF SD rats, 220±20 g each, were purchased from Beijing Vital River Experimental Animal Technology Co., Ltd. After 2 weeks of adaptive feeding in the laboratory, the animals were numbered by ear tags and randomized into 7 groups, with […] in each group.
The positive drug was tranexamic acid (TXA).
An amount of the positive drug tranexamic acid (TXA) was weighed and added with the electrolyte solution to prepare 64 mM and 21 mM solutions.
The animals were given a single dose at 12 mL/kg by oral gavage 2 hours before the laparotomy operation. The animals in the sham operation group and the model group were given the solvents.
The animals were fasted but water was given before the operation (>12 hours). The abdomen was locally depilated after inhalation anesthesia and disinfected with iodophor solution. An incision with the size of 3 cm was made in the midline area of the abdomen of the experimental animal using a scalpel, and the cecum was taken out. The serosal layer on each side of the ileocecal region was repeatedly rubbed with sterile gauze until there were needle-like bleeding points on the surface, forming a damaged wound inside and outside of the cecum. The cecum was returned back to the abdominal cavity. The abdominal cavity was closed, sutured layer by layer with surgical sutures, and disinfected. The entire operation should be performed aseptically. The experimental operations were carried out for 4 animals in each group. In the sham operation group, the animal's abdomens were opened only without damaging the cecum.
The animals were dissected and observed 7 days after the operation.
The intestinal adhesions were scored using the Phillips grading method.

MMP9 = MMP9 (Homo sapiens, UniProt P14780); assay: Inhibition of recombinant human protease MMP9, fluorescence assay; format: biochemical
Protocol: (§1) The purpose is to determine the inhibitory activity of the compounds of the present disclosure on recombinant human proteases Trypsin, MMP9, and TACE.
(§2) • Trypsin: 100 mM Tris-HCl, 75 mM NaCl, 2.5 mM CaCl2, 10 mM Cysteine, pH 7.5 • MMP9: 50 mM Tris, 10 mM CaCl2), 150 mM NaCl, 0.05% Brij-35 (w/v), pH7.5 • TACE: 25 mM Tris, 2.5 μM ZnCl2, 0.005% Brij-35 (w/v), pH 9.0 […]
(§3) The inhibitory effect of the compounds of the present disclosure on the above three proteases was determined by the above test, and the measured IC50 values were as follows.

[2] = tested on: postoperative intestinal adhesions; assay: Abdominal adhesion model by the file method (cecal friction), Phillips grading; format: in vivo, SD rats; conditions: rats; gavage 2% solution 12 mL/kg 2 hours before operation + peritoneal irrigation 1% solution 2 mL/animal; 7th day after operation
Source text: • 3.1 Experimental animals: The male SPF SD rats (220 g each) were purchased from the Experimental Animal Center of Hangzhou Medical College and passed the inspection of Zhejiang Provincial Experimental Animal Quality Supervision and Inspection Station. […] The solvent used for intragastric administration was compound polyethylene glycol electrolyte solution; the solvent used for irrigation administration was sterile saline solution. • 3.3 Preparation of solvent: One bag of compound polyethylene glycol electrolyte solution (68.56 g) was dissolved in 1 L of pure water, and is further added with 44 g of glucose (containing water) to make the glucose content of 4% (w/v) in the solvent. The prepared solvent was stored at 2-8° C. and used within one week. • 3.4 Preparation of intragastric solution: An amount of test sample was weighed and added with an appropriate amount of sterile ultrapure water to prepare a 20% (w/v) stock solution, then an equivalent amount of NaOH was added to adjust the pH to neutral until completely dissolved (the pH value was measured). […]

[3] = tested on: total proteases in the homogenate of the jejunal segment of the small intestine of rats; assay: Inhibition of total proteases in rat small intestine (jejunum) homogenate, fluorescent protease activity kit; format: biochemical; conditions: ΔRFU within 30 minutes
Source text: The purpose is to determine the inhibitory activity of the compounds of the present disclosure on total proteases in the homogenate of the jejunal segment of the small intestine of rats.
• a) Preparation of rat intestinal homogenate and protein quantification • i. Tissue sampling: The experimental animals were anesthetized and bled to death. The small intestine was folded in half from the ileocecal junction to the duodenum at the lower end of the stomach, and the jejunum in the middle with a size of about 4 cm was taken; after washing with a 0.9% sodium chloride solution, it was quickly frozen in liquid nitrogen and then transferred to −80° C. for storage; • ii. […] The total protein of the homogenate was quantified using the BCA protein concentration assay kit according to the instructions. • b) Inhibitory activity test of compound • i. […]
• v. […] The fluorescence signals at FI=Ex 485/Em 520 nm were detected continuously within 30 minutes (once every 5 minutes) using a kinetic mode. • c) Data analysis
The difference between fluorescence signals within 30 minutes was calculated and recorded as ΔRFU. […]
The inhibitory effect of the compounds of the present disclosure on the total proteases in the rat small intestine homogenate was determined by the above test, and the measured IC50 values were as follows.

TACE(ADAM17) = TACE(ADAM17) (Homo sapiens, UniProt P78536); assay: Inhibition of recombinant human protease TACE, fluorescence assay; format: biochemical
Protocol: as §1, §2, §3

Sequence of TACE(ADAM17) (P78536 215-824): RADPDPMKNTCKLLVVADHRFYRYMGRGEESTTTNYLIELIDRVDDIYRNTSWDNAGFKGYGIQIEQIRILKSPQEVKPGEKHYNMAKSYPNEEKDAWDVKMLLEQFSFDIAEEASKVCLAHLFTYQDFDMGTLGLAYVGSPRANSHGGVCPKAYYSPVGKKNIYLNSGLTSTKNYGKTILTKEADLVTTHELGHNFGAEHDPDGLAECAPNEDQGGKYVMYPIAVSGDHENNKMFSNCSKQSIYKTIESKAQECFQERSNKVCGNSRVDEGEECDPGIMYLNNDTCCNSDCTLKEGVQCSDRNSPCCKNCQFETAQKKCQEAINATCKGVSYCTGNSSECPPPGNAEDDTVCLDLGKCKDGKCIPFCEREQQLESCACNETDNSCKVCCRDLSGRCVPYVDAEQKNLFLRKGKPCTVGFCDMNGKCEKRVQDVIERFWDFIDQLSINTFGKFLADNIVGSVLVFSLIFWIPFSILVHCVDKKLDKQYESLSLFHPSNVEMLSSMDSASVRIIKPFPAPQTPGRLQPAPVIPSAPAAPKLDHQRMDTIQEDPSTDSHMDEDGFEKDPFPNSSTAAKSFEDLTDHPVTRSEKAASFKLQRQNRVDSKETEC
Sequence of MMP9 (P14780 94-707): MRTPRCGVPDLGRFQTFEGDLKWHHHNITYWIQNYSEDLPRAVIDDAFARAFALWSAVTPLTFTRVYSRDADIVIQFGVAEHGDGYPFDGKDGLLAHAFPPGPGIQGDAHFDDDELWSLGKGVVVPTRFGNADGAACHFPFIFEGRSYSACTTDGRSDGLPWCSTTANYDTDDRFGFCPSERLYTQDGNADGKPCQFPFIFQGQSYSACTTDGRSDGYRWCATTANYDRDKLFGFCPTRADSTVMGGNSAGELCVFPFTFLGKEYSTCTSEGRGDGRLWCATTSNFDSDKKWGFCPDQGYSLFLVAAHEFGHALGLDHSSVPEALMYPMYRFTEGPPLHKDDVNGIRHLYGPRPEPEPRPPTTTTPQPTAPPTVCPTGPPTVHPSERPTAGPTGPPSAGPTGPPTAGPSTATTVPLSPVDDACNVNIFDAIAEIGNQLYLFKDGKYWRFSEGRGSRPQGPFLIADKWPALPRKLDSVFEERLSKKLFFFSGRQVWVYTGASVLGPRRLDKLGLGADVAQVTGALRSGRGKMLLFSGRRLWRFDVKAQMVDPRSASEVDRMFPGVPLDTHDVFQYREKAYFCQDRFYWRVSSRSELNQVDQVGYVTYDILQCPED

| Compound | animal deaths after the operation ([1]; rat, in vivo) | extent (and locations) of intra-abdominal adhesions compared with the model group ([1]; 21 mM solution) | extent (and locations) of intra-abdominal adhesions compared with the model group ([1]; 64 mM solution) | IC50 (MMP9) [mM] | animals with quantity and extent of intestinal adhesions significantly improved compared with the model group [2] | IC50 [3] [mM] | IC50 (TACE(ADAM17)) [mM] | IC50 (MMP9; recombinant human MMP9 0.2 μg/mL, substrate 10 μM, room temperature 30 minutes, read-out: IC50 MMP9) [mM] | IC50 (TACE(ADAM17); recombinant human TACE 0.2 μg/mL, substrate 20 μM, room temperature 30 minutes, read-out: IC50 TACE(ADAM17)) [mM] |
| --- | --- | --- | --- | --- | --- | --- | --- | --- | --- |
| NC[C@H]1CC[C@H](C(=O)O)CC1 [tranexamic acid, reference compound] | one animal died | exhibited an alleviating trend | significantly alleviated | – | – | – | – | – | – |
| Cl.O=P(O)(O)c1ccc2c(n1)CCNC2 [Preparative example 2, (5,6,7,8-tetrahydro-1,6-naphthyridin-2-yl) phosphonic acid hydrochloride] | – | – | improved to a certain extent | ~25 | more than 80% | 17.9 | 7.38 | – | – |
| Cl.O=C(O)c1ccc2c(n1)CCNC2 [Preparative example 1, 5,6,7,8-tetrahydro-1,6-naphthyridine-2-carboxylic acid hydrochloride] | – | reduced | reduced significantly | – | – | 13.4 | – | 6.56 | 5.43 |
